Holding throughout (assay type): in vivo, rat
Assay [1] can be described thus: Assay B: aldosterone infusion model, systolic blood pressure by radio-telemetry. The conditions noted are these: uni-nephrectomized Sprague Dawley rats, 1% NaCl, aldosterone 0.75 mg/hr sc, 4 weeks, eplerenone 100 mpk p.o. How it is done: Assay B: In Vivo Aldosterone Infusion Model
Male Sprague Dawley rats (n=39; BW=250 g)
Uni-nephrectomy performed during implantation of mini-pumps
2. Aldosterone (0.75 mg/hr, sc via alzet minipump)
1. Aldosterone (0. 75 mg/hr, sc via alzet minipump)+0.6% KCl in the drinking fluid
Groups 1, 2 and 3 received only 0.3% KCl in the drinking solution
SBP measured by radio-telemetry probes inserted in the abdominal aorta

Assay [2] relates to Intercellular Adhesion Molecule-1 (ICAM-1). As to the kind of experiment: Assay C: ICAM-1 mRNA, TaqMan. To be noted: aldosterone+salt alone or with eplerenone 100 mg/kg/day; 7, 14, 30 days. How it is done: The procedure of Assay B was expanded upon in a further study. […] Myocardial tissue from animals in each treatment group was examined after 7, 14, or 30 days of treatment.
(§1) Potassium chloride supplementation was added to the saline solution in order to prevent the potential hypokalemia associated with aldosterone excess.
Treatment At the time of the surgery, an Alzet 2002 osmotic minipump (Alza Corp., Palo Alto, Calif.) containing either vehicle (9% ethanol/87% propylene glycol/4% dH2O) or 1.0 mg/mL d-aldosterone (Sigma Chemical, St. Louis, Mo.) was inserted subcutaneously at the nape of the neck. Aldosterone was administered at a dose of 0.75 µg/hour. […]
The fluorogenic 5′-nuclease assay (TaqMan PCR) using Applied Biosystems' 7700 Sequence Detection System (Applied Biosystems, Foster City, Calif.) allowed for real time detection/quantitation of a specific gene by monitoring the increase in fluorescence of a gene-specific, dye-labeled oligonucleotide probe. […] When the probe was annealed to the target gene, fluorescence of 6FAM was prevented by the close proximity of TAMRA. The exonuclease activity of Taq polymerase released the dyes from the oligonucleotide probe by displacing the probe from the target sequence resulting in fluorescence excitation in direct proportion to the amount of target message present. […]

Assay [3] deals with Osteopontin, ED-1, CD-3, ICAM-1, VCAM-1. As to the kind of experiment: Assay C: immunohistochemistry of myocardial tissue. To be noted: aldosterone+salt alone or with eplerenone 100 mg/kg/day. How it is done:
The procedure of Assay B was expanded upon in a further study. […] Myocardial tissue from animals in each treatment group was examined after 7, 14, or 30 days of treatment. […] Lesions were preceded by the expression and progressive upregulation of proinflammatory molecules.
as §1
Treatment At the time of the surgery, an Alzet 2002 osmotic minipump (Alza Corp., Palo Alto, Calif.) containing either vehicle (9% ethanol/87% propylene glycol/4% dH2O) or 1.0 mg/mL d-aldosterone (Sigma Chemical, St. Louis, Mo.) was inserted subcutaneously at the nape of the neck. Aldosterone was administered at a dose of 0.75 µg/hour. […] Animals were sacrificed from each group (n=8-13) after 7, 14, or 30 days of treatment.
Five μm sections were deparaffinized in xylene (two, 5-10 min incubations) and rehydrated by 3 min incubations in ethanol as follows: two incubations in 100% ethanol followed by two incubations in 95% alcohol and one incubation in 70% alcohol. Once hydrated, sections were rinsed in tap water for 1 min and distilled water for 1 min. Endogenous peroxide activity was blocked by placing slides in 3.0% H2O2 for 15 min followed by a 5 min rinse in distilled water. Slides were processed for antigen retrieval using citric acid, pH6.0. […]

Assay [4] in a line: Assay A: angiotensin II infusion model, systolic blood pressure by tail-cuff. To be noted: Wistar rats, 1% NaCl to drink, angiotensin II 25 ng/min sc, 4 weeks; eplerenone 100 mpk; aldosterone given to adrenalectomized, dexamethasone-treated rats.

“Also recorded” adds a separate entry of the source.

On to `COC(=O)[C@@H]1CC2=CC(=O)CC[C@]2(C)[C@@]23O[C@@H]2C[C@@]2(C)[C@@H](CC[C@@]24CCC(=O)O4)[C@H]13` [eplerenone], for which the Systolic blood pressure result is on record as “depression of this elevation” in assay [1]; “significantly reduced, but did not normalize blood pressure” in assay [1] (listed as Eplerenone); “Neither eplerenone nor adrenalectomy reduced blood pressure” in assay [4]. Moreover, the “ICAM-1 mRNA expression in myocardium” value in assay [2] is “significantly reduced; also recorded: inhibition of early time-course expression of myocardial ICAM-1 and VCAM-1”. The “Immunohistochemical staining of marker proteins in myocardial tissue” value in assay [3] is “markedly blunted”.
With `C[C@]12CCC(=O)C=C1CC[C@@H]1[C@@H]2[C@@H](O)C[C@]2(C=O)[C@@H](C(=O)CO)CC[C@@H]12` [aldosterone], the Systolic blood pressure entry in assay [1] was “increased; also recorded: systolic blood pressure elevation”; in assay [4] it was “increased blood pressure”. Besides, the “ICAM-1 mRNA expression in myocardium” value in assay [2] was “upregulated at day 14 and 30”. The “Immunohistochemical staining of marker proteins in myocardial tissue” value in assay [3] is reported as “Significant expression of osteopontin”.
